# Source: patent US9896418B2, “Aryl ethers and uses thereof” (Peloton Therapeutics, Inc., priority 2013, dated 2018)
# System: HIF-2α HIS TAG-PASB Domain
# Assay: HIF-2α Scintillation Proximity Assay (SPA)
# Type: binding
# Description: The percent inhibition was determined and IC50 values were calculated using the Dotmatics system based on the following equation: % inhibition=[(high control−sample)/(high control−low control)]×100.
row,Structure (SMILES),IC50 [µM]
1,"CS(=O)(=O)c1ccc(Oc2cc(F)cc(C#N)c2)c2c1[C@H](O)C(F)(F)[C@H]2O [Compound 311, 3-[(1S,3S)-2,2-difluoro-1,3-dihydroxy-7-methylsulfonyl-indan-4-yl]oxy-5-fluoro-benzonitrile]",8.7
2,"CS(=O)(=O)c1ccc(Oc2cc(F)cc(C#N)c2)c2c1[C@H](O)C(F)(F)[C@@H]2O [Compound 312, 3-[(1S,3R)-2,2-difluoro-1,3-dihydroxy-7-methylsulfonyl-indan-4-yl]oxy-5-fluoro-benzonitrile]",0.15
3,"CS(=O)(=O)c1ccc(Oc2cncc(C#N)c2)c2c1[C@H](O)[C@H](F)C2 [Compound 313, 5-(((1S,2R)-2-fluoro-1-hydroxy-7-(methylsulfonyl)-2,3-dihydro-1H-inden-4-yl)oxy)nicotinonitrile]",1.8
4,"CS(=O)(=NC#N)c1ccc(Oc2cc(F)cc(C#N)c2)c2c1[C@H](O)C(F)(F)[C@H]2F (stereo partly drawn) [Compound 318, [[(1S,3S)-7-(3-cyano-5-fluoro-phenoxy)-1,2,2-trifluoro-3-hydroxy-indan-4-yl]-methyl-oxo-λ^6-sulfanylidene]cyanamide]",2.38
5,"CS(=O)(=O)c1ccc(Oc2cncc(Br)c2)c2c1C(=O)C(F)(F)C2 [Compound 323, 4-((5-Bromopyridin-3-yl)oxy)-2,2-difluoro-7-(methylsulfonyl)-2,3-dihydro-1H-inden-1-one]",5.25
6,"CS(=O)(=O)c1ccc(Oc2cncc(Br)c2)c2c1[C@H](O)C(F)(F)C2 [Compound 324, (S)-4-((5-Bromopyridin-3-yl)oxy)-2,2-difluoro-7-(methylsulfonyl)-2,3-dihydro-1H-inden-1-ol]",0.054
7,"CS(=O)(=O)c1ccc(Oc2cncc(C#N)c2)c2c1[C@H](O)C(F)(F)C2 [Compound 325, (S)-5-((2,2-Difluoro-1-hydroxy-7-(methylsulfonyl)-2,3-dihydro-1H-inden-4-yl)oxy)nicotinonitrile]",0.18
8,"CS(=O)(=O)c1ccc(Oc2cncc(Br)c2)c2c1[C@H](O)[C@H](F)C2 [Compound 326, (1S,2R)-4-((5-Bromopyridin-3-yl)oxy)-2-fluoro-7-(methylsulfonyl)-2,3-dihydro-1H-inden-1-ol]",1.28
9,"CS(=O)(=O)c1ccc(Oc2ccc(F)c(C#N)c2)c2c1[C@H](O)C(F)(F)[C@@H]2F [Compound 327, 2-Fluoro-5-(((1S,3R)-2,2,3-trifluoro-1-hydroxy-7-(methylsulfonyl)-2,3-dihydro-1H-inden-4-yl)oxy)benzonitrile]",0.028
10,"CS(=O)(=O)c1ccc(Oc2cncc(Br)c2)c2c1[C@H](O)[C@H](F)[C@@H]2F [Compound 328, (1S,2S,3R)-4-((5-Bromopyridin-3-yl)oxy)-2,3-difluoro-7-(methylsulfonyl)-2,3-dihydro-1H-inden-1-ol]",0.032
11,"CS(=O)(=O)c1ccc(Oc2cncc(F)c2)c2c1[C@H](O)C(F)(F)[C@@H]2F [Compound 329, (1S,3R)-2,2,3-trifluoro-4-((5-fluoropyridin-3-yl)oxy)-7-(methylsulfonyl)-2,3-dihydro-1H-inden-1-ol]",< 0.005
12,"CS(=O)(=O)c1ccc(Oc2cncc(F)c2)c2c1[C@H](O)C(F)(F)[C@H]2F [Compound 330, (1S,3S)-2,2,3-trifluoro-4-((5-fluoropyridin-3-yl)oxy)-7-(methylsulfonyl)-2,3-dihydro-1H-inden-1-ol]",2.09
13,"CS(=O)(=O)c1ccc(Oc2cncc(Cl)c2)c2c1[C@H](O)C(F)(F)[C@@H]2F [Compound 331, (1S,3R)-4-((5-chloropyridin-3-yl)oxy)-2,2,3-trifluoro-7-(methylsulfonyl)-2,3-dihydro-1H-inden-1-ol]",0.007
14,"CS(=O)(=O)c1ccc(Oc2cncc(Cl)c2)c2c1[C@H](O)C(F)(F)[C@H]2F [Compound 332, (1S,3S)-4-((5-chloropyridin-3-yl)oxy)-2,2,3-trifluoro-7-(methylsulfonyl)-2,3-dihydro-1H-inden-1-ol]",2.33
15,"CS(=O)(=O)c1ccc(Oc2cncc(C#N)c2)c2c1[C@H](O)[C@H](F)[C@@H]2F [Compound 333, 5-(((1S,2S,3R)-2,3-difluoro-1-hydroxy-7-(methylsulfonyl)-2,3-dihydro-1H-inden-4-yl)oxy)nicotinonitrile]",0.074
16,"N#Cc1cc(F)cc(Oc2ccc(S(N)(=O)=O)c3c2C[C@@H](F)[C@H]3O)c1 [Compound 334, (2R,3S)-7-(3-cyano-5-fluoro-phenoxy)-2-fluoro-3-hydroxy-indane-4-sulfonamide]",0.073
17,"N#Cc1cc(F)cc(Oc2ccc(S(N)(=O)=O)c3c2[C@@H](O)C(F)(F)[C@H]3O)c1 [Compound 337, (1R,3S)-7-(3-cyano-5-fluoro-phenoxy)-2,2-difluoro-1,3-dihydroxy-indane-4-sulfonamide]",3.67
18,"N#Cc1cncc(Oc2ccc(S(N)(=O)=O)c3c2[C@@H](F)C(F)(F)[C@H]3O)c1 [Compound 340, (1R,3S)-7-[(5-cyano-3-pyridyl)oxy]-1,2,2-trifluoro-3-hydroxy-indane-4-sulfonamide]",0.024
19,"NS(=O)(=O)c1ccc(Oc2cncc(F)c2)c2c1[C@H](O)C(F)(F)[C@@H]2F [Compound 341, (1R,3S)-1,2,2-trifluoro-7-[(5-fluoro-3-pyridyl)oxy]-3-hydroxy-indane-4-sulfonamide]",0.018

row,Structure (SMILES),IC50 [µM]
1,"CS(=O)(=O)c1ccc(Oc2cncc(C#N)c2)c2c1[C@H](O)C(F)(F)[C@@H]2F [Compound 342, 5-(((1S,3R)-2,2,3-trifluoro-1-hydroxy-7-(methylsulfonyl)-2,3-dihydro-1H-inden-4-yl)oxy)nicotinonitrile]",0.04
2,"CS(=O)(=O)c1ccc(Oc2cncc(C#N)c2)c2c1[C@H](O)C(F)(F)[C@H]2F [Compound 343, 5-(((1S,3S)-2,2,3-trifluoro-1-hydroxy-7-(methylsulfonyl)-2,3-dihydro-1H-inden-4-yl)oxy)nicotinonitrile]",23.9
3,"N#Cc1cncc(Oc2ccc(S(=O)(=O)CF)c3c2[C@@H](F)C(F)(F)[C@H]3O)c1 [Compound 344, 5-(((1S,3R)-2,2,3-trifluoro-7-((fluoromethyl)sulfonyl)-1-hydroxy-2,3-dihydro-1H-inden-4-yl)oxy)nicotinonitrile]",0.0067
4,"N#Cc1cncc(Oc2ccc(S(=O)(=O)CF)c3c2[C@H](F)C(F)(F)[C@H]3O)c1 [Compound 345, 5-(((1S,3S)-2,2,3-trifluoro-7-((fluoromethyl)sulfonyl)-1-hydroxy-2,3-dihydro-1H-inden-4-yl)oxy)nicotinonitrile]",2.18
5,CS(=O)(=O)c1ccc(Oc2cc(F)cc(C#N)c2)c2c1[C@H](N)C(F)(F)[C@@H]2F [Compound 346],0.515
6,"N#Cc1cncc(Oc2ccc(S(=O)(=O)C(F)F)c3c2CC(F)(F)[C@H]3O)c1 [Example 27, (S)-5-((7-((Difluoromethyl)sulfonyl)-2,2-difluoro-1-hydroxy-2,3-dihydro-1H-inden-4-yl)oxy)nicotinonitrile]",0.25
7,"O=S(=O)(c1ccc(Oc2cc(F)cc(F)c2)c2c1[C@H](O)CC2)C(F)(F)F [Example 55, (R)-4-(3,5-Difluorophenoxy)-7-((trifluoromethyl)sulfonyl)-2,3-dihydro-1H-inden-1-ol]",< 0.005
8,"O[C@@H]1CCc2c(Oc3cc(F)cc(F)c3)ccc(C(F)(F)F)c21 [Example 58, (R)-4-(3,5-Difluorophenoxy)-7-(trifluoromethyl)-2,3-dihydro-1H-inden-1-ol]",< 0.005
9,"CS(=O)(=O)c1ccc(Oc2cncc(Cl)c2)c2c1[C@H](O)C(F)(F)C2 [Example 115, (S)-4-((5-Chloropyridin-3-yl)oxy)-2,2-difluoro-7-(methylsulfonyl)-2,3-dihydro-1H-inden-1-ol]",0.35
10,"CS(=O)(=O)c1ccc(Oc2cc(F)cc(Cl)c2)c2c1[C@H](O)C(F)(F)C2 [Example 160, (1S)-4-(3-Chloro-5-fluoro-phenoxy)-2,2-difluoro-7-methylsulfonyl-indan-1-ol]",< 0.005
11,"N#Cc1cc(F)cc(Oc2ccc(S(=O)(=O)C(F)(F)F)c3c2CC(F)(F)[C@H]3O)c1 [Example 185, (S)-3-((2,2-Difluoro-1-hydroxy-7-((trifluoromethyl)sulfonyl)-2,3-dihydro-1H-inden-4-yl)oxy)-5-fluorobenzonitrile]",< 0.005
12,"O=S(=O)(c1ccc(Oc2cncc(Cl)c2)c2c1[C@H](O)C(F)(F)C2)C(F)(F)F [Example 186, (S)-4-((5-Chloropyridin-3-yl)oxy)-2,2-difluoro-7-((trifluoromethyl)sulfonyl)-2,3-dihydro-1H-inden-1-ol]",< 0.005
13,"O=S(=O)(CF)c1ccc(Oc2cncc(Cl)c2)c2c1[C@H](O)C(F)(F)C2 [Example 187, (S)-4-((5-Chloropyridin-3-yl)oxy)-2,2-difluoro-7-((fluoromethyl)sulfonyl)-2,3-dihydro-1H-inden-1-ol]",0.079
14,"CS(=O)(=NC#N)c1ccc(Oc2cc(F)cc(F)c2)c2c1C(O)C(F)(F)C2 (stereo not shown) [Example 191, N-((7-(3,5-difluorophenoxy)-2,2-difluoro-3-hydroxy-2,3-dihydro-1H-inden-4-yl)(methyl)(oxo)-λ^6-sulfanylidene)cyanamide]",< 0.005
15,"CS(=N)(=O)c1ccc(Oc2cc(F)cc(F)c2)c2c1[C@H](O)C(F)(F)C2 (stereo partly drawn) [Example 192, ((S)-7-(3,5-Difluorophenoxy)-2,2-difluoro-3-hydroxy-2,3-dihydro-1H-inden-4-yl)(imino)(methyl)-λ^6-sulfanone]",0.18
16,"O=S(=O)(c1ccc(Oc2ccc(F)c(Cl)c2)c2c1[C@H](O)C(F)(F)C2)C(F)(F)F [Example 221, (S)-4-(3-Chloro-4-fluorophenoxy)-2,2-difluoro-7-((trifluoromethyl)sulfonyl)-2,3-dihydro-1H-inden-1-ol]",0.029
17,"N#Cc1cncc(Oc2ccc(S(=O)(=O)C(F)(F)F)c3c2C[C@@H](F)[C@H]3O)c1 [Example 225, 5-(((1S,2R)-2-Fluoro-1-hydroxy-7-((trifluoromethyl)sulfonyl)-2,3-dihydro-1H-inden-4-yl)oxy)nicotinonitrile]",< 0.005
18,"N#Cc1cc(Oc2ccc(S(=O)(=O)C(F)(F)F)c3c2CC(F)(F)[C@H]3O)ccc1F [Example 228, (S)-5-((2,2-Difluoro-1-hydroxy-7-((trifluoromethyl)sulfonyl)-2,3-dihydro-1H-inden-4-yl)oxy)-2-fluorobenzonitrile]",0.04
